According to the NIST ThermoML archive (doi:10.1021/je025657+):
Several values for one entry are separate records, joined by “and”; a condition that tells them apart may be missing. Identical values can stand only once. ± gives the expanded uncertainty stated by the source.

COC(F)(F)C(F)(F)F [methyl pentafluoroethyl ether]
Conditions	mass density [kg/m3]
300 K, 953.1 kPa, Liquid	1264.98 ± 1.1
300 K, 1060.7 kPa, Liquid	1264.75 ± 1.2
300 K, 1531 kPa, Liquid	1267.74 ± 1.2
300 K, 2019 kPa, Liquid	1270.02 ± 1.2
300 K, 2031.9 kPa, Liquid	1269.32 ± 1.2
300 K, 2496.4 kPa, Liquid	1272.22 ± 1.3
300 K, 2993.2 kPa, Liquid	1274.45 ± 1.4
300 K, 3055.9 kPa, Liquid	1273.93 ± 1.4
300 K, 3514 kPa, Liquid	1276.75 ± 1.4
300 K, 4031 kPa, Liquid	1279 ± 1.5
300 K, 4031.8 kPa, Liquid	1278.16 ± 1.5
300 K, 4522.9 kPa, Liquid	1281.1 ± 1.5
300 K, 4978 kPa, Liquid	1283 ± 1.6
300 K, 5197 kPa, Liquid	1282.99 ± 1.6
300 K, 5491.3 kPa, Liquid	1285.12 ± 1.6
300 K, 5997.8 kPa, Liquid	1287.18 ± 1.7
300 K, 6173.2 kPa, Liquid	1286.91 ± 1.7
300 K, 6524.7 kPa, Liquid	1289.29 ± 1.7
300 K, 7023.9 kPa, Liquid	1291.24 ± 1.8
300 K, 7126.4 kPa, Liquid	1290.5 ± 1.8
310 K, 21.5 kPa, Gas	1.25 ± 0.28
310 K, 31.7 kPa, Gas	1.86 ± 0.28
310 K, 97.3 kPa, Gas	5.82 ± 0.29
310 K, 144.4 kPa, Gas	8.89 ± 0.3
310 K, 195.7 kPa, Gas	12.34 ± 0.31
310 K, 245.2 kPa, Gas	15.73 ± 0.32
310 K, 276.7 kPa, Gas	17.86 ± 0.32
310 K, 300.3 kPa, Liquid	1229.27 ± 0.98
310 K, 312.6 kPa, Liquid	1229.37 ± 0.98
310 K, 517 kPa, Liquid	1231.54 ± 1
310 K, 1007.8 kPa, Liquid	1234.36 ± 1.1
310 K, 1029.3 kPa, Liquid	1233.39 ± 1.1
310 K, 1513.8 kPa, Liquid	1237.16 ± 1.1
310 K, 2033.1 kPa, Liquid	1239.99 ± 1.1
310 K, 2065.7 kPa, Liquid	1238.99 ± 1.1
310 K, 2524.9 kPa, Liquid	1242.6 ± 1.2
310 K, 3064.4 kPa, Liquid	1245.4 ± 1.2
310 K, 3131.6 kPa, Liquid	1244.48 ± 1.2
310 K, 3532.8 kPa, Liquid	1247.78 ± 1.3
310 K, 3972.8 kPa, Liquid	1249.95 ± 1.3
310 K, 4126.7 kPa, Liquid	1249.38 ± 1.3
310 K, 4507.3 kPa, Liquid	1252.57 ± 1.4
310 K, 5034.7 kPa, Liquid	1255.08 ± 1.4
310 K, 5145.5 kPa, Liquid	1254.18 ± 1.4
310 K, 5514.9 kPa, Liquid	1257.34 ± 1.5
310 K, 6031.8 kPa, Liquid	1259.71 ± 1.5
310 K, 6158.3 kPa, Liquid	1258.81 ± 1.5
310 K, 6533.8 kPa, Liquid	1261.96 ± 1.6
310 K, 7010.8 kPa, Liquid	1264.09 ± 1.6
310 K, 7224 kPa, Liquid	1263.45 ± 1.6
320 K, 61.7 kPa, Gas	3.58 ± 0.28
320 K, 90.4 kPa, Gas	5.23 ± 0.29
320 K, 101.6 kPa, Gas	5.98 ± 0.29
320 K, 132 kPa, Gas	7.77 ± 0.29
320 K, 155.5 kPa, Gas	9.32 ± 0.3
320 K, 191.5 kPa, Gas	11.5 ± 0.3
320 K, 213.2 kPa, Gas	12.95 ± 0.31
320 K, 276.1 kPa, Gas	17.25 ± 0.32
320 K, 336.5 kPa, Gas	21.52 ± 0.33
320 K, 383 kPa, Gas	24.92 ± 0.34
320 K, 384.9 kPa, Gas	25.11 ± 0.34
320 K, 389.1 kPa, Gas	25.46 ± 0.34
320 K, 413.8 kPa, Liquid	1196.33 ± 0.88
320 K, 506.3 kPa, Liquid	1198.36 ± 0.89
320 K, 1023.1 kPa, Liquid	1201.87 ± 0.94
320 K, 1053 kPa, Liquid	1200.63 ± 0.94
320 K, 1521.8 kPa, Liquid	1205.15 ± 0.98
320 K, 2002.9 kPa, Liquid	1208.23 ± 1
320 K, 2051.9 kPa, Liquid	1207.02 ± 1
320 K, 2517.3 kPa, Liquid	1211.43 ± 1.1
320 K, 3022.6 kPa, Liquid	1214.49 ± 1.1
320 K, 3053.1 kPa, Liquid	1213.09 ± 1.1
320 K, 3517.5 kPa, Liquid	1217.45 ± 1.2
320 K, 4012.9 kPa, Liquid	1220.32 ± 1.2
320 K, 4120.2 kPa, Liquid	1219.2 ± 1.2
320 K, 4543.1 kPa, Liquid	1223.3 ± 1.2
320 K, 5018.6 kPa, Liquid	1225.9 ± 1.3
320 K, 5085.4 kPa, Liquid	1224.49 ± 1.3
320 K, 5551.9 kPa, Liquid	1228.77 ± 1.4
320 K, 5992.8 kPa, Liquid	1231.09 ± 1.4
320 K, 6206.6 kPa, Liquid	1230.35 ± 1.4
320 K, 6495.8 kPa, Liquid	1233.69 ± 1.4
320 K, 6965.6 kPa, Liquid	1236.06 ± 1.5
320 K, 7182.7 kPa, Liquid	1235.21 ± 1.5
330 K, 70.8 kPa, Gas	3.97 ± 0.28
330 K, 98.4 kPa, Gas	5.48 ± 0.29
330 K, 103.9 kPa, Gas	5.88 ± 0.29
330 K, 151.6 kPa, Gas	8.67 ± 0.3
330 K, 169.4 kPa, Gas	9.72 ± 0.3
330 K, 219.7 kPa, Gas	12.83 ± 0.31
330 K, 235.2 kPa, Gas	13.71 ± 0.31
330 K, 295.3 kPa, Gas	17.66 ± 0.32
330 K, 307.4 kPa, Gas	18.42 ± 0.32
330 K, 315.2 kPa, Gas	18.98 ± 0.32
330 K, 375.8 kPa, Gas	23.12 ± 0.34
330 K, 444.8 kPa, Gas	28.23 ± 0.35
330 K, 472.9 kPa, Gas	30.25 ± 0.35
330 K, 547.4 kPa, Liquid	1161.55 ± 0.78
330 K, 1004 kPa, Liquid	1165.27 ± 0.81
330 K, 1009.1 kPa, Liquid	1167.02 ± 0.82
330 K, 1493.2 kPa, Liquid	1170.86 ± 0.86
330 K, 1999 kPa, Liquid	1172.99 ± 0.89

mass density
Conditions	300 K	310 K	320 K
Gas	–	23.61 ± 0.18 kg/m3	29.81 ± 0.19 kg/m3
Liquid	1260.39 ± 1.1 kg/m3 and 1261.37 ± 1.1 kg/m3 and 1261.41 ± 1.1 kg/m3	1230.28 ± 0.98 kg/m3	1196.29 ± 0.88 kg/m3 and 1197.68 ± 0.88 kg/m3
